From patent publication US20240150293A1, “SPIROCYCLOHEXANE DERIVATIVES, PHARMACEUTICAL COMPOSITIONS CONTAINING THEM AND THEIR USES AS ANTI-APOPTOTIC INHIBITORS” (LES LABORATOIRES SERVIER, priority 2021, published 2024)
Where two headings read alike, the source gives them in different places.

Legend:
[1] = target: Cy5-labelled Mcl1 (amino acids 171-321) C286S protein (UniProtKB Q07820) (Homo sapiens (Human), UniProt Q07820, C286S); test: Inhibition of Mcl-1 by the fluorescence quenching assay (Example A, Method B); type: binding
In short: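 Cy5-labelled Mcl1 171-321 C286S (1 nM) quenched by TQ5WS-labelled PUMA peptide (10, 20 or 400 nM); displacement raises fluorescence (Ex 620/Em 680 nm). Buffer 10 mM HEPES, 150 mM NaCl, 0.05% Tween 20, pH 7.4, 5% DMSO; 2 h at room temperature, 11-point curves, IC50 converted to Ki (cKi/eKi).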

NCI-H929 cell lines = test: In vitro cytotoxicity, CellTiter-Glo (CTG) assay (Example B, Method B); type: cell-based; conditions: NCI-H929 cells, 48 h incubation, read-out: C50
Method: Cellular viability was monitored with the cell viability assay (Cell Titer-Glo®) on NCI-H929 cell lines. The CellTiter-Glo® (CTG) Luminescent Cell Viability Assay (from Promega) is a homogeneous method to determine the number of viable cells in culture based on quantitation of the ATP present, which signals the presence of metabolically active cells.
Concentration response of test compounds are performed with 10 mM stock solutions (DMSO), 11-points curve, in a 384-well compound plate. The assay plate is prepared by stamping 120 nL from compound dilution plate of all different concentrations (e.g. 10 mM to have final 30 μM assay test) into a cell culture microplate, using Echo acoustic liquid handling (Labcyte, Beckman). 40 μl of cell solution is added and cells are incubated with compounds for 48 h at 37° C., 5% CO2. CTG was added to the cells (according to the manufacturer instructions) and luminescence intensity was recorded using the Pherastar plate reader (BMG).
This assay provides in vitro cellular efficacy of compounds of Formula (I) tested, measuring the C50, defined as the concentration needed to reach 50% of the cellular viability.

Sequence of Cy5-labelled Mcl1 (amino acids 171-321) C286S protein (Q07820 171-321 C286S): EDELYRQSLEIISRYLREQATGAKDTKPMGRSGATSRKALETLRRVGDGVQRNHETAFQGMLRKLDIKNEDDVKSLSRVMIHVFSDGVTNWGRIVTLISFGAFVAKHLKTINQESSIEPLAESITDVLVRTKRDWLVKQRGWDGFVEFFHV

Ki [1]	Ki ([1]; Ki determined from IC50)	Structure (SMILES)	IC50 (NCI-H929 cell lines; Homo sapiens, NCI-H929, 48 h)	IC50 (NCI-H929 cell lines)
0.0173 nM	–	CC1Oc2cc3c(cc2O1)[C@]1(CC[C@@](Nc2cccc(Cl)c2)(C(=O)O)CC1)[C@@H](C[C@@H](C)COc1ccnc2c1[C@H](C)CCC2)C3 (single isomer, unassigned) [Example 965]	68.8 nM	–
0.028 nM	–	C[C@@H](COc1ccnc2c1[C@H](C)CCC2)C[C@H]1Cc2cc3c(cc2[C@]12CC[C@@](Nc1cccc(Cl)c1)(C(=O)O)CC2)OCC(F)(F)CO3 [Example 996, (1r,4S,8′S)-4-(3-chloroanilino)-3′,3′-difluoro-8′-[(2R)-2-methyl-3-{[(5R)-5-methyl-5,6,7,8-tetrahydroquinolin-4-yl]oxy}propyl]-3′,4′,8′,9′-tetrahydro-2′H-spiro[cyclohexane-1,7′-indeno[5,6-b][1,4]dioxepine]-4-carboxylic acid]	84.5 nM	–
0.0173 nM	–	C[C@@H](COc1ccnc2c1[C@H](C)CCC2)C[C@H]1Cc2cc3c(cc2[C@]12CC[C@@](Nc1cccc(Cl)c1)(C(=O)O)CC2)OCC3 [Example 850, (1r,4S,6′S)-4-(3-chloroanilino)-6′-[(2R)-2-methyl-3-{[(5R)-5-methyl-5,6,7,8-tetrahydroquinolin-4-yl]oxy}propyl]-2′,3′,5′,6′-tetrahydrospiro[cyclohexane-1,7′-indeno[5,6-b]furan]-4-carboxylic acid]	50.9 nM	–
0.25 nM	–	C[C@@H](COc1ccnc2c1[C@H](C)CCC2)C[C@H]1Cc2c(Cl)c3c(cc2[C@]12CC[C@@](Nc1cccc(Cl)c1)(C(=O)O)CC2)OCO3 [Example 888, (1r,4S,6′S)-8′-chloro-4-(3-chloroanilino)-6′-[(2R)-2-methyl-3-{[(5R)-5-methyl-5,6,7,8-tetrahydroquinolin-4-yl]oxy}propyl]-6′,7′-dihydro-2′H-spiro[cyclohexane-1,5′-indeno[5,6-d][1,3]dioxole]-4-carboxylic acid]	92.5 nM	–
0.329 nM	–	CCOc1cc2c(cc1C)CC(C[C@@H](C)COc1ccnc3c1[C@H](C)CCC3)[C@]21CC[C@](Nc2cccc(Cl)c2)(C(=O)O)CC1 (stereo partly drawn) [Example 824, (1r,4R)-4-(3-chloroanilino)-6′-ethoxy-5′-methyl-2′-[(2R)-2-methyl-3-{[(5R)-5-methyl-5,6,7,8-tetrahydroquinolin-4-yl]oxy}propyl]-2′,3′-dihydrospiro[cyclohexane-1,1′-indene]-4-carboxylic acid]	421 nM	–
0.0405 nM	–	CCC1Oc2cc3c(cc2O1)[C@]1(CC[C@@](Nc2cccc(Cl)c2)(C(=O)O)CC1)[C@@H](C[C@@H](C)COc1ccnc2c1[C@H](C)CCC2)C3 (single isomer, unassigned) [Example 968]	–	72.7 nM
0.0288 nM	–	CCC1COc2cc3c(cc2OC1)[C@]1(CC[C@@](Nc2cccc(Cl)c2)(C(=O)O)CC1)[C@@H](C[C@@H](C)COc1ccnc2c1[C@H](C)CCC2)C3 (single isomer, unassigned) [Example 989]	–	88.5 nM
0.0263 nM	–	CCC1Oc2cc3c(cc2O1)[C@]1(CC[C@@](Nc2cccc(Cl)c2)(C(=O)O)CC1)[C@@H](C[C@@H](C)COc1ccnc2c1[C@H](C)CCC2)C3 (single isomer, unassigned) [Example 967]	137 nM	–
0.353 nM	–	CCOc1cc2c(cc1Cl)C[C@H](C[C@@H](C)COc1ccnc3c1[C@H](C)CCC3)[C@]21CC[C@](Nc2cccc(Cl)c2)(C(=O)O)CC1 [Example 816, (1r,2′S,4S)-5′-chloro-4-(3-chloroanilino)-6′-ethoxy-2′-[(2R)-2-methyl-3-{[(5R)-5-methyl-5,6,7,8-tetrahydroquinolin-4-yl]oxy}propyl]-2′,3′-dihydrospiro[cyclohexane-1,1′-indene]-4-carboxylic acid]	101 nM	–
0.0575 nM	–	CCCC1COc2cc3c(cc2OC1)[C@]1(CC[C@@](Nc2cccc(Cl)c2)(C(=O)O)CC1)[C@@H](C[C@@H](C)COc1ccnc2c1[C@H](C)CCC2)C3 (single isomer, unassigned) [Example 990]	–	353 nM

Continued, molecule first:

Structure (SMILES)	Ki [1]	Ki ([1]; Ki determined from IC50)	IC50 (NCI-H929 cell lines; Homo sapiens, NCI-H929, 48 h)	IC50 (NCI-H929 cell lines)
COC(=O)OCOC(=O)[C@]1(Nc2cccc(Cl)c2)CC[C@@]2(CC1)c1cc3c(cc1C[C@@H]2C[C@@H](C)COc1ccnc2c1[C@H](C)CCC2)OCO3 [Example 946, [(methoxycarbonyl)oxy]methyl (1r,4S,6′S)-4-(3-chloroanilino)-6′-[(2R)-2-methyl-3-{[(5R)-5-methyl-5,6,7,8-tetrahydroquinolin-4-yl]oxy}propyl]-6′,7′-dihydro-2′H-spiro[cyclohexane-1,5′-indeno[5,6-d][1,3]dioxole]-4-carboxylate]	11 nM	–	34.2 nM	–
COCCOC(=O)[C@]1(Nc2cccc(Cl)c2)CC[C@@]2(CC1)c1cc3c(cc1C[C@@H]2C[C@@H](C)COc1ccnc2c1[C@H](C)CCC2)OCO3 [Example 934, 2-methoxyethyl (1r,4S,6′S)-4-(3-chloroanilino)-6′-[(2R)-2-methyl-3-{[(5R)-5-methyl-5,6,7,8-tetrahydroquinolin-4-yl]oxy}propyl]-6′,7′-dihydro-2′H-spiro[cyclohexane-1,5′-indeno[5,6-d][1,3]dioxole]-4-carboxylate]	69 nM	–	> 30000 nM	–
C[C@@H](COc1ccnc2c1[C@H](C)CCC2)C[C@H]1Cc2cc3c(cc2[C@]12CC[C@@](Nc1cccc(Cl)c1F)(C(=O)O)CC2)OCO3 [Example 846, (1r,4S,6′S)-4-(3-chloro-2-fluoroanilino)-6′-[(2R)-2-methyl-3-{[(5R)-5-methyl-5,6,7,8-tetrahydroquinolin-4-yl]oxy}propyl]-6′,7′-dihydro-2′H-spiro[cyclohexane-1,5′-indeno[5,6-d][1,3]dioxole]-4-carboxylic acid]	0.105 nM	–	42 nM	–
CC(=O)OC(C)OC(=O)[C@]1(Nc2cccc(Cl)c2)CC[C@@]2(CC1)c1cc3c(cc1C[C@@H]2C[C@@H](C)COc1ccnc2c1[C@H](C)CCC2)OCO3 (stereo partly drawn) [Example 939, 1-(acetyloxy)ethyl (1r,4S,6′S)-4-(3-chloroanilino)-6′-[(2R)-2-methyl-3-{[(5R)-5-methyl-5,6,7,8-tetrahydroquinolin-4-yl]oxy}propyl]-6′,7′-dihydro-2′H-spiro[cyclohexane-1,5′-indeno[5,6-d][1,3]dioxole]-4-carboxylate]	1.7 nM	–	157 nM	–
COCCOCCOC(=O)[C@]1(Nc2cccc(Cl)c2)CC[C@@]2(CC1)c1cc3c(cc1C[C@@H]2C[C@@H](C)COc1ccnc2c1[C@H](C)CCC2)OCO3 [Example 933, 2-(2-methoxyethoxy)ethyl (1r,4S,6′S)-4-(3-chloroanilino)-6′-[(2R)-2-methyl-3-{[(5R)-5-methyl-5,6,7,8-tetrahydroquinolin-4-yl]oxy}propyl]-6′,7′-dihydro-2′H-spiro[cyclohexane-1,5′-indeno[5,6-d][1,3]dioxole]-4-carboxylate]	303 nM	–	18900 nM	–
Cc1ccc2c(c1)CN(C[C@@H](C)COc1ccnc3c1[C@H](C)CCC3)[C@]21CC[C@](Nc2ccc(F)c(Cl)c2)(C(=O)O)CC1 [Example 54, (1s,4S)-4-(3-chloro-4-fluoroanilino)-5′-methyl-2′-[(2R)-2-methyl-3-{[(5R)-5-methyl-5,6,7,8-tetrahydroquinolin-4-yl]oxy}propyl]-2′,3′-dihydrospiro[cyclohexane-1,1′-isoindole]-4-carboxylic acid]	–	0.177 nM	177 nM	–
C[C@@H](COc1ccnc2c1[C@H](C)CCC2)C[C@H]1Cc2cc3c(cc2[C@]12CC[C@@](Nc1cccc(Cl)c1)(C(=O)OCCN(C)C)CC2)OCO3 [Example 935, 2-(dimethylamino)ethyl (1r,4S,6′S)-4-(3-chloroanilino)-6′-[(2R)-2-methyl-3-{[(5R)-5-methyl-5,6,7,8-tetrahydroquinolin-4-yl]oxy}propyl]-6′,7′-dihydro-2′H-spiro[cyclohexane-1,5′-indeno[5,6-d][1,3]dioxole]-4-carboxylate]	5.46 nM	–	1900 nM	–
C[C@@H](COc1ccnc2c1[C@H](C)CCC2)C[C@H]1Cc2cc3c(cc2[C@]12CC[C@@](Nc1cccc(Cl)c1)(C(=O)OCOP(=O)(OC(C)(C)C)OC(C)(C)C)CC2)OCO3 [Example 951, [(di-tert-butoxyphosphoryl)oxy]methyl (1r,4S,6′S)-4-(3-chloroanilino)-6′-[(2R)-2-methyl-3-{[(5R)-5-methyl-5,6,7,8-tetrahydroquinolin-4-yl]oxy}propyl]-6′,7′-dihydro-2′H-spiro[cyclohexane-1,5′-indeno[5,6-d][1,3]dioxole]-4-carboxylate]	36.9 nM	–	1790 nM	–
COc1cc2c(cc1F)CN(C[C@@H](C)COc1ccnc3c1[C@H](C)CCC3)[C@]21CC[C@](Nc2cccc(Cl)c2)(C(=O)O)CC1 [Example 43, (1s,4S)-4-(3-chloroanilino)-5′-fluoro-6′-methoxy-2′-[(2R)-2-methyl-3-{[(5R)-5-methyl-5,6,7,8-tetrahydroquinolin-4-yl]oxy}propyl]-2′,3′-dihydrospiro[cyclohexane-1,1′-isoindole]-4-carboxylic acid]	–	0.25 nM	162 nM	–
